Test system: MPNST (malignant peripheral nerve sheath tumor) cells
Assay: Cell viability assay (Dojindo CCK-8)
Details: 500 nmol/L, 72 hours

Cc1ccc(NC(=O)c2ccc(CN3CCN(C)CC3)cc2)cc1Nc1nccc(-c2cccnc2)n1 [imatinib]
anti-proliferative effect, comparison of TKIs: anti-proliferative effect similar to MGCD516

— PMC4826192 (Oncotarget, 2015)
